Assay results taken from US20240277841A2, “HUMAN CHIMERIC ANTIGEN RECEPTOR NEUTROPHILS, COMPOSITIONS, KITS AND METHODS OF USE” (Purdue Research Foundation, priority 2020, published 2024).
Entries after “also recorded” stand apart in the source; their conditions may differ.

Legend:
[1] = test system: neutrophil extracellular trap (NET) formation; conditions: 3 μg/ml or more
glioblastoma = assay: Tumor lysis by CAR neutrophils with inhibitors; type: cell-based; conditions: for glioblastoma viability: co-incubation with CAR neutrophils
U87MG cells = assay: Neutrophil infiltration of 3D tumor spheroids; type: cell-based, human; conditions: pre-treating neutrophils
Protocol: A 3-D biomimetic GBM model was constructed to mimic an in vivo tumor niche-like microenvironment with a dense, extracellular matrix and heterogeneous tumor cell subtypes.
Neutrophil infiltration of 3D tumor spheroids. The 3D tumor spheroids were obtained using the hanging drop method. Briefly, U87MG cells were suspended in MEM medium with 10% FBS and 0.3% methylcellulose at 2×10^6 cells/mL and deposited onto an inverted lid of 96-well plate as an individual drop using a 20 μL pipettor. The cover lid was then placed back onto the PBS-filled bottom chamber and incubated at 37° C. and 5% CO2. The hanging drops were monitored daily until cell aggregates were formed in ˜5-7 days. Each cell aggregate was transferred to a single well of a 24-well plate for the substream analysis. To assess the tumor penetration capability of CLTX T-CAR neutrophils, 2×10^5 neutrophils/well were added to the wells of 24-well plate and incubated with the tumor spheroids. After co-incubation for 24 hours, the tumor spheroids were fixed and stained for CD45 and DAPI. For the cytotoxicity analysis, the mixture of neutrophils and tumor spheroids were stained with 1 μM Calcein-AM and 1 μM propidium iodide (PI). The stained cells were then imaged using a Leica DMi-8 fluorescent microscope.

tumor cells = assay: Phagocytosis of tumor cells by neutrophils with inhibitor; type: cell-based; conditions: 5 μM
mammals = conditions: cited from earlier work
invertebrates = conditions: cited from earlier work
[2] = test system: glioblastomas and other tumors; conditions: cited from earlier work
TGFβ = assay: hPSC differentiation: endothelial-to-hematopoietic transition; type: cell-based, human; conditions: 10 μM from day 4
Protocol: H9 was obtained from WiCell and maintained on Matrigel- or iMatrix 511-coated plates in mTeSR plus medium according to a previously published method. For differentiation, hPSCs were dissociated with 1 mM EDTA and seeded onto iMatrix 511-coated, 24-well plates at a cell density between 10,000 and 80,000 cells/cm^2 in mTeSR plus medium with 5 μM Y27632 for 24 hours (day −1). At day 0, cells were treated with 6 μM CHIR99021 (CHIR) in DMEM medium supplemented with 100 μg/mL ascorbic acid (DMEM/Vc), followed by a medium change with LasR basal medium at day 1, day 2, and day 3 and the addition of 50 ng/ml VEGF to the medium from day 2 to day 4. At day 4, medium was replaced by Stemline II medium (Sigma) supplemented with 10 μM SB431542. After 2 days, SB431542-containing medium was aspirated, and cells were maintained in Stemline II medium with 50 ng/mL SCF and FLT3L. At day 9 and day 12, the medium was aspirated and changed to Stemline II medium containing 50 ng/mL SCF and FLT3L and 25 ng/mL GM-CSF. At day 15, floating cells were gently harvested and used for terminal neutrophil differentiation. The floating cells were cultured in Stemline II medium supplemented with GlutaMAX 100X, ExCyte (0.2%), human G-CSF (150 ng/mL), and Am580 retinoic acid agonist (2.5 μM). After three days, the same medium with all components and cytokines was added to the top of the existing culture. […]

[3] = test system: day 15 myeloid progenitors; assay: Myeloid progenitor monocyte/macrophage potential by flow cytometry; type: cell-based, human; conditions: compared to GM-CSF
Protocol: (§1) Differentiated cells were gently pipetted and filtered through a 70 or 100 μm strainer sitting on a 50 mL tube. The cells were then pelleted by centrifugation and washed three times with PBS−/− solution containing 1% BSA. The cells were stained with appropriately conjugated antibodies for 25 min at room temperature in the dark and analyzed in an Accuri C6 plus cytometer (Beckton Dickinson) after washing with BSA-containing PBS−/− solution. Flow Jo software was used to process the collected flow data.
as §1, with “Flow cytometry analysis. Differentiated” for “Differentiated”, “twice” for “three times”, “bovine serum albumin (BSA).” for “BSA.”, “appropriate” for “appropriately”, “dark,” for “the dark”, “FlowJo” for “Flow Jo”

CC(C)c1cccc(C(C)C)c1O [propofol]
NET formation in neutrophils [1]: significant decrease | tumor lysis by CAR neutrophils (glioblastoma): significantly blocked

CC(=O)N[C@@H](CS)C(=O)O [N-acetylcysteine]
tumor lysis by CAR neutrophils (glioblastoma): significantly blocked | glioblastoma viability (glioblastoma): higher viability

C=C1[C@@H](C)[C@H]2[C@H](Cc3ccccc3)NC(=O)[C@]23[C@H](OC(C)=O)/C=C/[C@@](C)(O)C(=O)[C@@H](C)C/C=C/[C@H]3[C@@H]1O [cytochalasin D]
tumor lysis by CAR neutrophils (glioblastoma): significantly blocked | glioblastoma viability (glioblastoma): higher viability | effect on tumor cytotoxicity of CAR-neutrophils (U87MG cells): significantly reduced | effect on tumor-infiltrating activity of CAR-neutrophils (U87MG cells): significantly reduced | phagocytosis of tumor cells by neutrophils (tumor cells): significantly reduced

chlorotoxin [CLTX]
toxicity to mammals (mammals): nontoxic | toxicity to invertebrates (invertebrates): highly toxic | tumor binding [2]: binds selectively

NC(=O)c1ccc(-c2nc(-c3ccc4c(c3)OCO4)c(-c3ccccn3)[nH]2)cc1 [SB431542]
endothelial-to-hematopoietic transition (generation of CD45+CD43+ HSPCs) (TGFβ): promoted endothelial-to-hematopoietic transition; also recorded: promoted EHT process

B1: G-CSF: recombinant human granulocyte colony-stimulating factor (protein, UniProt P09919 31-207, looked up)
Granulocyte …: TPLGPASSLPQSFLLKCLEQVRKIQGDGAALQEKLVSECATYKLCHPEELVLLGHSLGIPWAPLSSCPSQALQLAGCLSQLHSGLFLYQGLLQALEGISPELGPTLDTLQLDVADFATTIWQQMEELGMAPALQPTQGAMPAFASAFQRRAGGVLVASHLQSFLEVSYRVLRHLAQP
number of CD14+ monocytes/macrophages [3]: significantly decreased

B2: soluble MMP2: soluble matrix metallopeptidase 2 used to pre-treat neutrophils (protein, UniProt P08253 110-660, looked up)
72 kDa type IV collagenase: YNFFPRKPKWDKNQITYRIIGYTPDLDPETVDDAFARAFQVWSDVTPLRFSRIHDGEADIMINFGRWEHGDGYPFDGKDGLLAHAFAPGTGVGGDSHFDDDELWTLGEGQVVRVKYGNADGEYCKFPFLFNGKEYNSCTDTGRSDGFLWCSTTYNFEKDGKYGFCPHEALFTMGGNAEGQPCKFPFRFQGTSYDSCTTEGRTDGYRWCGTTEDYDRDKKYGFCPETAMSTVGGNSEGAPCVFPFTFLGNKYESCTSAGRSDGKMWCATTANYDDDRKWGFCPDQGYSLFLVAAHEFGHAMGLEHSQDPGALMAPIYTYTKNFRLSQDDIKGIQELYGASPDIDLGTGPTPTLGPVTPEICKQDIVFDGIAQIRGEIFFFKDRFIWRTVTPRDKPMGPLLVATFWPELPEKIDAVYEAPQEEKAVFFAGNEYWIYSASTLERGYPKPLTSLGLPPDVQRVDAAFNWSKNKKTYIFAGDKFWRYNEVKKKMDPGFPKLIADAWNAIPDNLDAVVDLQGGGHSYFFKGAYYLKLENQSLKSVKFGSIKSDWLGC
effect on tumor cytotoxicity of CAR-neutrophils (U87MG cells): significantly reduced | effect on tumor-infiltrating activity of CAR-neutrophils (U87MG cells): significantly reduced
